The values that follow are results of earlier work, collected in patent publication US20240141060A1, “DOSAGE REGIMES FOR ANTI-CD73 AND ANTI-ENTPD2 ANTIBODIES AND USES THEREOF” (NOVARTIS AG, priority 2021, published 2024).

The conditions of this data set: patients; cited from earlier work.

Molecules are shown by their SMILES.

In the case of `Nc1nc(-n2cccn2)nc(-n2cccn2)c1Br` [NIR178, 5-bromo-2,6-di-(1H-pyrazol-1-yl)pyrimidine-4-amine, reference compound], the MTD is recorded as 480 mg BID.
